Assays:
Format in all cases: in vivo
Avena fatua [1] = assay: Post-emergence test/greenhouse; conditions: greenhouse, application rate 15 gai/ha, rated after three weeks, 0%=no effect, 100%=total destruction
Protocol: (§1) • Solvent: 5 parts by weight of acetone • Emulsifier: 1 part by weight of alkylaryl polyglycol ether
(§2) To produce a suitable preparation of active compound, 1 part by weight of active compound is mixed with the stated amount of solvent, the stated amount of emulsifier is added and the concentrate is diluted with water to the desired concentration.
(§3) Test plants of a height of 5-15 cm are sprayed with the preparation of active compound such that the particular amounts of active compound desired are applied per unit area. The concentration of the spray liquor is chosen such that the particular amounts of active compound desired are applied in 1000 l of water/ha.
(§4) After three weeks, the degree of damage to the plants is rated in % damage in comparison to the development of the untreated control.
(§5) The figures denote: • 0%=no effect (like untreated control) • 100%=total destruction

Setaria [2] = assay: Post-emergence test/greenhouse; conditions: greenhouse, application rate 15 gai/ha, rated after three weeks, 0%=no effect, 100%=total destruction
Protocol: as §1, §2, §3, §4, §5

Bromus [3] = assay: Post-emergence test/greenhouse; conditions: greenhouse, application rate 15 gai/ha, rated after three weeks, 0%=no effect, 100%=total destruction
Protocol: as §1, §2, §3, §4, §5

Digitaria [4] = assay: Post-emergence test/greenhouse; conditions: greenhouse, application rate 15 gai/ha, rated after three weeks, 0%=no effect, 100%=total destruction
Protocol: as §1, §2, §3, §4, §5

Echinochloa = assay: Post-emergence test/greenhouse; conditions: greenhouse, application rate 15 gai/ha, rated after three weeks, 0%=no effect, 100%=total destruction
Protocol: as §1, §2, §3, §4, §5

Lolium [5] = assay: Post-emergence test/greenhouse; conditions: greenhouse, application rate 15 gai/ha, rated after three weeks, 0%=no effect, 100%=total destruction
Protocol: as §1, §2, §3, §4, §5

Avena fatua [6] = assay: Pre-emergence test/greenhouse; conditions: greenhouse, application rate 15 gai/ha, rated after three weeks, 0%=no effect, 100%=total destruction
Protocol: as §1
(§6) To produce a suitable preparation of active compound, 1 part by weight of active compound is mixed with the stated amount of solvent, the stated amount of emulsifier is added and the concetrate is diluted with water to the desired concentration.
(§7) Seeds of the test plants are sown in normal soil. After 24 hours, the soil is sprayed with the preparation of active compound such that the particular amount of active compound desired is applied per unit area. The concentration of active compound in the spray liquor is chosen such that the particular amount of active compound desired is applied in 1000 litres of water per hectare.
(§8) After three weeks, the degree of damage to the plants is rated in % damage in comparison to the development of the untreated control. The figures denote: • 0%=no effect (like untreated control) • 100%=total destruction

Matricaria = assay: Pre-emergence test/greenhouse; conditions: greenhouse, application rate 15 gai/ha, rated after three weeks, 0%=no effect, 100%=total destruction
Protocol: as §1, §6, §7, §8

Polygonum = assay: Pre-emergence test/greenhouse; conditions: greenhouse, application rate 15 gai/ha, rated after three weeks, 0%=no effect, 100%=total destruction
Protocol: as §1, §6, §7, §8

Setaria [7] = assay: Pre-emergence test/greenhouse; conditions: greenhouse, application rate 15 gai/ha, rated after three weeks, 0%=no effect, 100%=total destruction
Protocol: as §1, §6, §7, §8

Amaranthus = assay: Pre-emergence test/greenhouse; conditions: greenhouse, application rate 15 gai/ha, rated after three weeks, 0%=no effect, 100%=total destruction
Protocol: as §1, §6, §7, §8

Stellaria = assay: Pre-emergence test/greenhouse; conditions: greenhouse, application rate 15 gai/ha, rated after three weeks, 0%=no effect, 100%=total destruction
Protocol: as §1, §6, §7, §8

Lolium [8] = assay: Pre-emergence test/greenhouse; conditions: greenhouse, application rate 15 gai/ha, rated after three weeks, 0%=no effect, 100%=total destruction
Protocol: as §1, §6, §7, §8

weeds [9] = assay: Pre-emergence test, summary for weeds
Protocol: as §1, §6, §7, §8

[10] = tested on: crop plants such as, for example, maize, oilseed rape and wheat; assay: Post-emergence test, summary for crop plants
Protocol: as §1, §2, §3, §4, §5

[11] = tested on: crop plants, such as, for example, maize, soyabean and wheat; assay: Pre-emergence test, summary for crop plants
Protocol: as §1, §6, §7, §8

weeds [12] = assay: Post-emergence test, summary for weeds
Protocol: as §1, §2, §3, §4, §5

wheat = assay: Pre-emergence test/greenhouse; conditions: greenhouse, application rate 15 gai/ha, rated after three weeks, 0%=no effect, 100%=total destruction
Protocol: as §1, §6, §7, §8

Digitaria [13] = assay: Pre-emergence test/greenhouse; conditions: greenhouse, application rate 15 gai/ha, rated after three weeks, 0%=no effect, 100%=total destruction
Protocol: as §1, §6, §7, §8

Solanum = assay: Pre-emergence test/greenhouse; conditions: greenhouse, application rate 15 gai/ha, rated after three weeks, 0%=no effect, 100%=total destruction
Protocol: as §1, §6, §7, §8

Alopecurus [14] = assay: Pre-emergence test/greenhouse; conditions: greenhouse, application rate 15 gai/ha, rated after three weeks, 0%=no effect, 100%=total destruction
Protocol: as §1, §6, §7, §8

maize = assay: Pre-emergence test/greenhouse; conditions: greenhouse, application rate 15 gai/ha, rated after three weeks, 0%=no effect, 100%=total destruction
Protocol: as §1, §6, §7, §8

Chenopodium = assay: Pre-emergence test/greenhouse; conditions: greenhouse, application rate 15 gai/ha, rated after three weeks, 0%=no effect, 100%=total destruction
Protocol: as §1, §6, §7, §8

soybeans = assay: Pre-emergence test/greenhouse; conditions: greenhouse, application rate 15 gai/ha, rated after three weeks, 0%=no effect, 100%=total destruction
Protocol: as §1, §6, §7, §8

Alopecurus [15] = assay: Post-emergence test/greenhouse; conditions: greenhouse, application rate 15 gai/ha, rated after three weeks, 0%=no effect, 100%=total destruction
Protocol: as §1, §2, §3, §4, §5

Bromus [16] = assay: Pre-emergence test/greenhouse; conditions: greenhouse, application rate 15 gai/ha, rated after three weeks, 0%=no effect, 100%=total destruction
Protocol: as §1, §6, §7, §8

Xanthium = assay: Pre-emergence test/greenhouse; conditions: greenhouse, application rate 15 gai/ha, rated after three weeks, 0%=no effect, 100%=total destruction
Protocol: as §1, §6, §7, §8

| Structure (SMILES) | degree of damage to the plants, Avena fatua (Avena fatua [1]) | degree of damage to the plants, Setaria (Setaria [2]) | degree of damage to the plants, Bromus (Bromus [3]) | degree of damage to the plants, Digitaria (Digitaria [4]) | degree of damage to the plants, Echinochloa (Echinochloa) | degree of damage to the plants, Lolium (Lolium [5]) | degree of damage to the plants, Matricaria (Matricaria) | degree of damage to the plants, Polygonum (Polygonum) | degree of damage to the plants, Setaria (Setaria [7]) | degree of damage to the plants, Amaranthus (Amaranthus) | degree of damage to the plants, Stellaria (Stellaria) | degree of damage to the plants, Lolium (Lolium [8]) | activity against weeds compared with the known compounds (A) to (G) (weeds [9]) | compatibility with crop plants compared with the known compounds (A) and (B) [10] | tolerance by crop plants [11] | activity against weeds compared with the known compounds (A) and (B) (weeds [12]) | degree of damage to the plants, wheat (wheat) | degree of damage to the plants, Solanum (Solanum) | degree of damage to the plants, Alopecurus (Alopecurus [14]) | degree of damage to the plants, maize (maize) | also measured |
| --- | --- | --- | --- | --- | --- | --- | --- | --- | --- | --- | --- | --- | --- | --- | --- | --- | --- | --- | --- | --- | --- |
| COCc1nn(C(=O)NS(=O)(=O)c2c(C(=O)OC)csc2C)c(=O)n1C1CC1 [Example 45] | 90% | 90% | 90% | 100% | 100% | 95% | 100% | 95% | 100% | 100% | 100% | 100% | considerably stronger activity against weeds | substantially better compatibility with crop plants | tolerated well by crop plants | considerably stronger activity against weeds | – | – | – | – | degree of damage to the plants, Avena fatua (Avena fatua [6]): 95% |
| COC(=O)c1csc(C)c1S(=O)(=O)NC(=O)n1nc(OCC(F)(F)F)n(C2CC2)c1=O [Example 43] | – | – | – | – | – | – | 100% | 100% | 95% | 100% | 100% | 95% | considerably stronger activity against weeds | – | tolerated well by crop plants | – | – | – | – | – | – |
| CCOn1c(CC)nn(C(=O)NS(=O)(=O)c2c(C(=O)OC)csc2C)c1=O [Example 39] | 90% | 95% | 95% | 95% | 100% | 95% | – | – | 100% | 100% | 100% | 95% | considerably stronger activity against weeds | substantially better compatibility with crop plants | tolerated well by crop plants | considerably stronger activity against weeds | 0% | 95% | – | – | degree of damage to the plants, Digitaria (Digitaria [13]): 100% |
| COC(=O)c1csc(C)c1S(=O)(=O)NC(=O)n1nc(OCC(F)(F)F)n(C)c1=O [Example 41] | – | – | – | – | – | – | – | – | 95% | 100% | 100% | – | considerably stronger activity against weeds | – | tolerated well by crop plants | – | 0% | 100% | 100% | 0% | degree of damage to the plants, Chenopodium (Chenopodium): 100% |
| CCOc1nn(C(=O)NS(=O)(=O)c2c(C(=O)OC)csc2C)c(=O)n1CC [Example 38] | – | – | – | – | – | – | – | – | 95% | 100% | 100% | 80% | considerably stronger activity against weeds | – | tolerated well by crop plants | – | – | 100% | – | 0% | degree of damage to the plants, soybeans (soybeans): 0%; degree of damage to the plants, Chenopodium (Chenopodium): 95% |
| CCCc1nn(C(=O)NS(=O)(=O)c2c(C(=O)OC)csc2C)c(=O)n1C [Example 15] | 90% | 90% | 80% | 100% | 90% | 80% | – | 90% | – | – | 100% | 95% | considerably stronger activity against weeds | substantially better compatibility with crop plants | tolerated well by crop plants | considerably stronger activity against weeds | 0% | 95% | 100% | 0% | degree of damage to the plants, Alopecurus (Alopecurus [15]): 95%; degree of damage to the plants, Bromus (Bromus [16]): 90%; degree of damage to the plants, Xanthium (Xanthium): 95% |
| COC(=O)c1csc(C)c1S(=O)(=O)NC(=O)n1nc(C)n(C2CC2)c1=O [Example 46] | 80% | – | – | 90% | – | 95% | 100% | – | – | – | 100% | 90% | considerably stronger activity against weeds | substantially better compatibility with crop plants | tolerated well by crop plants | considerably stronger activity against weeds | 50% | – | 95% | 0% | degree of damage to the plants, Alopecurus (Alopecurus [15]): 80%; degree of damage to the plants, soybeans (soybeans): 0% |

— patent US7625841B2, “Substituted thiene-3-ylsulphonylamino(thio)carbonyltriazolin(ethi)ones” (Bayer CropScience AG, priority 2001, dated 2009)
